The target in this test is Beta-secretase 1 (Homo sapiens, UniProt P56817). As to the kind of experiment: Inhibition of BACE1.
Chain of Beta-secretase 1 (P56817 whole entry): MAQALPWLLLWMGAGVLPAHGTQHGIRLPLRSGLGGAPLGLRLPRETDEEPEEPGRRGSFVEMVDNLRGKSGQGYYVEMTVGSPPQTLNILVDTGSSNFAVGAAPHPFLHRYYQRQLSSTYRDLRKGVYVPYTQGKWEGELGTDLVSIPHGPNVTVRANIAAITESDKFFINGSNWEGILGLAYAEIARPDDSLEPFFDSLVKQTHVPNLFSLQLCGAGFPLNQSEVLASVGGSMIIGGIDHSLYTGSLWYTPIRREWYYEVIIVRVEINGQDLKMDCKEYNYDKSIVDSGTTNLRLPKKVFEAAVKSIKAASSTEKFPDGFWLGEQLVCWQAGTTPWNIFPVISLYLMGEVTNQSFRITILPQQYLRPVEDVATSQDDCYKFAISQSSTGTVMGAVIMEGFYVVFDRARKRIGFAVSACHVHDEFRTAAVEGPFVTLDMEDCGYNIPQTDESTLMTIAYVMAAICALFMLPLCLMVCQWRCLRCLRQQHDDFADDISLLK
Consider `CC(C)C[C@H](NC(=O)[C@@H](NC(=O)[C@@H](N)CN)C(C)C)C(=O)NCC(O)C(=O)Nc1cccc(C(=O)O)c1` (stereo partly specified), for which the IC50 was over 10 µM. Next, `CC(C)[C@H](NC(=O)[C@@H](NC(=O)[C@@H](CO)NC(=O)c1nn[nH]n1)C(C)C)C(=O)NCC(O)C(=O)Nc1cccc(C(=O)O)c1` (stereo partly specified): over 10 µM; `CC(C)[C@H](NC(=O)[C@@H](NC(=O)[C@@H](N)CNC(=O)c1nnn[nH]1)C(C)C)C(=O)NCC(O)C(=O)Nc1cccc(C(=O)O)c1` (stereo partly specified): 3 µM; `CC(C)C[C@H](NC(=O)[C@H](CC(C)C)NC(=O)[C@@H](N)CNC(=O)c1nnn[nH]1)C(=O)NCC(O)(CCc1ccccc1)C(=O)Nc1cccc(C(=O)O)c1` (stereo partly specified): over 10 µM.

`CC(C)C[C@H](NC(=O)[C@@H](NC(=O)[C@@H](N)CNC(=O)c1nn[nH]n1)C(C)C)C(=O)NCC(O)(CCc1ccccc1)C(=O)Nc1cccc(C(=O)O)c1` (stereo partly specified) showed a 50% inhibitory concentration (IC50) of 0.4 µM. The compound `CC(C)C[C@H](NC(=O)[C@@H](NC(=O)[C@@H](N)CNC(=O)c1nn[nH]n1)C(C)C)C(=O)NCC(O)C(=O)O` (stereo partly specified) displayed an IC50 of 6.1 µM. Then `CC(C)C[C@H](NC(=O)[C@@H](NC(=O)[C@@H](N)CN)C(C)C)C(=O)NCC(O)(CCc1ccccc1)C(=O)Nc1cccc(C(=O)O)c1` (stereo partly specified), with over 10 µM; and `CC(C)C[C@H](NC(=O)[C@@H](NC(=O)[C@@H](N)CNC(=O)c1nn[nH]n1)C(C)C)C(=O)NCC(O)C(=O)Nc1cccc(C(=O)O)c1` (stereo partly specified), with 0.44 µM; and `CC(C)C[C@H](NC(=O)[C@@H](NC(=O)[C@H](CO)NC(=O)c1nnn[nH]1)C(C)C)C(=O)NCCC(=O)Nc1cccc(C(=O)O)c1`, with over 10 µM.

The compound `CC(C)C[C@H](NC(=O)[C@@H](NC(=O)[C@@H](N)CNC(=O)c1nnn[nH]1)C(C)C)C(=O)NCCC(=O)Nc1cccc(C(=O)O)c1` returned an IC50 of 0.87 µM. Then `CCCC[C@H](NC(=O)[C@@H](N)CNC(=O)c1nnn[nH]1)C(=O)N[C@@H](CC(C)C)C(=O)NCC(O)(CCc1ccccc1)C(=O)Nc1cccc(C(=O)O)c1` (stereo partly specified), with over 10 µM. Take `CC(C)[C@H](NC(=O)[C@@H](N)CNC(=O)c1nn[nH]n1)C(=O)N[C@@H](CC1CCCCC1)C(=O)NCC(O)(Cc1ccccc1)C(=O)Nc1cccc(C(=O)O)c1` (stereo partly specified): half-maximal inhibition (IC50) required 0.68 µM.

`CC(C)C[C@H](NC(=O)[C@@H](NC(=O)[C@@H](N)CNC(=O)c1nnn[nH]1)C(C)C)C(=O)NCC(O)(Cc1ccccc1)C(=O)Nc1cccc(C(=O)O)c1` (stereo partly specified): the half-maximal inhibitory concentration (IC50) came to 0.43 µM.

In the case of `CC(C)C[C@H](NC(=O)[C@@H](NC(=O)[C@@H](N)CNC(=O)c1nnn[nH]1)C(C)C)C(=O)NC[C@](O)(CCc1ccccc1)C(=O)Nc1cccc(C(=O)O)c1`, 0.19 µM corresponded to half-maximal inhibition (IC50).

Take `CC(C)C[C@H](NC(=O)[C@H](Cc1ccccc1)NC(=O)[C@@H](N)CNC(=O)c1nnn[nH]1)C(=O)NC[C@](O)(CCc1ccccc1)C(=O)Nc1cccc(C(=O)O)c1`: the IC50 was over 10 µM.

Compound `CC(C)C[C@H](NC(=O)C[C@@H](NC(=O)[C@@H](N)CNC(=O)c1nnn[nH]1)C(C)C)C(=O)NCC(O)(CCc1ccccc1)C(=O)Nc1cccc(C(=O)O)c1` (stereo partly specified) displayed an IC50 of over 10 µM. Then `CC(C)C[C@H](NC(=O)[C@@H](NC(=O)[C@@H](N)CNC(=O)c1nn[nH]n1)C(C)C)C(=O)NC[C@@](O)(CCc1ccccc1)C(=O)Nc1cccc(C(=O)O)c1`, with 1.4 µM. Take `CC(C)C[C@H](NC(=O)[C@@H](NC(=O)[C@H](N)CNC(=O)c1nnn[nH]1)C(C)C)C(=O)NCC(O)(CCc1ccccc1)C(=O)Nc1cccc(C(=O)O)c1` (stereo partly specified): the half-inhibitory concentration (IC50) was over 10 µM.

In the case of `CC(C)C[C@H](NC(=O)[C@@H](NC(=O)[C@H](N)CO)C(C)C)C(=O)NCC(O)C(=O)Nc1cccc(C(=O)O)c1` (stereo partly specified), the 50% inhibitory concentration (IC50) is over 10 µM. Next, `CC(C)C[C@H](NC(=O)[C@@H](NC(=O)[C@@H](CO)NC(=O)c1nn[nH]n1)C(C)C)C(=O)NCC(O)(CCc1ccccc1)C(=O)Nc1cccc(C(=O)O)c1` (stereo partly specified): over 10 µM.

`CC(C)C[C@H](NC(=O)[C@@H](NC(=O)[C@@H](CO)NC(=O)c1nnn[nH]1)C(C)C)C(=O)NCCC(=O)Nc1cccc(C(=O)O)c1` had a 50% inhibitory concentration (IC50) of over 10 µM. Next, `CC(C)C[C@H](NC(=O)[C@@H](NC(=O)[C@H](CO)NC(=O)c1nnn[nH]1)C(C)C)C(=O)NCC(O)(CCc1ccccc1)C(=O)Nc1cccc(C(=O)O)c1` (stereo partly specified): over 10 µM. Then `CC(C)C[C@H](NC(=O)[C@@H](NC(=O)[C@@H](N)CNC(=O)c1nnn[nH]1)C(C)C)C(=O)O`, with 4.4 µM; and `CC(C)C[C@H](NC(=O)[C@@H](NC(=O)[C@H](N)CNC(=O)c1nnn[nH]1)C(C)C)C(=O)NCCC(=O)Nc1cccc(C(=O)O)c1`, with over 10 µM. Then `CC(C)C[C@H](NC(=O)[C@@H](NC(=O)[C@H](N)CNC(=O)c1nn[nH]n1)C(C)C)C(=O)NCC(O)C(=O)Nc1cccc(C(=O)O)c1` (stereo partly specified), with over 10 µM; and `CC(C)C[C@H](NC(=O)[C@H](Cc1ccccc1)NC(=O)[C@@H](N)CNC(=O)c1nnn[nH]1)C(=O)NC[C@@](O)(CCc1ccccc1)C(=O)Nc1cccc(C(=O)O)c1`, with over 10 µM.

The values above are taken from ChEMBL document CHEMBL1641451, “Investigation of α-phenylnorstatine and α-benzylnorstatine as transition state isostere motifs in the search for new BACE-1 inhibitors” (Bioorg Med Chem, 2011).
